Assay results reported in PubChem BioAssay (NCI).
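Method: 48-hour compound exposure of cells in 96-well plates, five concentrations, linear interpolation of endpoints. Definition used: TGI = concentration required for complete inhibition of growth.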

How the values were obtained:
Assay in all cases: NCI-60 cell line screen, 48 h
[1] = test system: LOX IMVI melanoma
[2] = test system: TK-10 renal
[3] = test system: SK-MEL-5 melanoma
[4] = test system: HCT-15 colon
[5] = test system: COLO 205 colon
[6] = test system: MOLT-4 leukemia
[7] = test system: NCI-H23 lung
[8] = test system: NCI-H522 lung
[9] = test system: SF-539 CNS
[10] = test system: BT-549 breast

Row | Structure (SMILES) | TGI [1] | TGI [2] | TGI [3] | TGI [4] | TGI [5] | TGI [6] | TGI [7] | TGI [8] | TGI [9] | TGI [10]
1 | NC(=O)[C@H](Cc1ccc(O)cc1)Nc1c(O)c2c(c(O)c1Cl)C(=O)C=CC2=O | > 4.65 µM | > 6.51 µM | 3.04 µM | 3.89 µM | 3.36 µM | 2.43 µM | > 8.2 µM | 4.01 µM | 5.28 µM | 5.26 µM
2 | O=C(O)c1c(CC(Cc2ccc3c(c2)CCC3)C(=O)O)ccc2c1CCC2 (stereo not given) | > 100 µM | > 100 µM | > 100 µM | > 100 µM | > 100 µM | > 100 µM | > 100 µM | > 100 µM | > 100 µM | > 100 µM
3 | N#Cc1c(NC(=S)Nc2ccc(Cl)cc2)sc2c1CCN(N1CCc3c(sc(NC(=S)Nc4ccc(Cl)cc4)c3C#N)C1)C2 | 23.4 µM | > 100 µM | 22.3 µM | > 100 µM | 33.4 µM | > 100 µM | > 100 µM | > 100 µM | 34.2 µM | > 100 µM
4 | O=P1(N(CCCl)CCCl)Oc2ccc(Cl)cc2C(C(Cl)(Cl)Cl)c2cc(Cl)ccc2O1 (stereo not given) | 28.7 µM | 89.5 µM | 24 µM | 23.5 µM | 26.5 µM | > 100 µM | > 100 µM | 42.9 µM | 29.9 µM | > 100 µM
5 | COc1cc(CCNC2=CC(=O)c3nc[nH]c3C2=O)ccc1O | 45.7 µM | 87.5 µM | 27.6 µM | > 100 µM | 56.5 µM | 89.1 µM | 48.6 µM | 62.3 µM | > 100 µM | 42 µM
6 | C=C(Br)CN=CN(C)C | > 100 µM | > 100 µM | > 100 µM | > 100 µM | > 100 µM | > 100 µM | > 100 µM | > 100 µM | > 100 µM | > 100 µM
7 | COc1ccc(CCNC(=O)Cc2ccccc2CO)cc1OC | > 100 µM | > 100 µM | > 100 µM | > 100 µM | > 100 µM | > 100 µM | > 100 µM | > 100 µM | > 100 µM | > 100 µM
8 | O=C(Nc1ccccc1)N1CCN(C(=O)Nc2ccccc2)C1=S | > 100 µM | > 100 µM | > 100 µM | > 100 µM | > 100 µM | > 100 µM | 55.4 µM | > 100 µM | 41.5 µM | > 100 µM
9 | Clc1ccc2c(c1)N(CCCN1CCCC13CCCCC3)c1ccccc1S2 | 26.5 µM | 29.7 µM | > 56 µM | 42.5 µM | > 54.9 µM | 18.9 µM | 44.2 µM | 25.1 µM | 33.4 µM | 32.5 µM
